In ChEMBL document CHEMBL3880422, “C-terminal modified oxamyl dipeptides as inhibitors of the ICE/ced-3 family of cysteine proteases” (2007):

Assays:
Caspase-1 (Mus musculus) = biological target: T1, Caspase-1 (Mus musculus) (UniProt P29452); assay: Inhibition of mouse recombinant ICE assessed as ratio of irreversible rate constant K3 to dissociation constant of the reversible binding step Ki pre-incubated for 60 mins with Acetyl-Tyr-Val-Ala-Asp-amino-4-methylcoumarin substrate followed by enzyme addition by fluorescence based assay
T1 sequence (whole entry): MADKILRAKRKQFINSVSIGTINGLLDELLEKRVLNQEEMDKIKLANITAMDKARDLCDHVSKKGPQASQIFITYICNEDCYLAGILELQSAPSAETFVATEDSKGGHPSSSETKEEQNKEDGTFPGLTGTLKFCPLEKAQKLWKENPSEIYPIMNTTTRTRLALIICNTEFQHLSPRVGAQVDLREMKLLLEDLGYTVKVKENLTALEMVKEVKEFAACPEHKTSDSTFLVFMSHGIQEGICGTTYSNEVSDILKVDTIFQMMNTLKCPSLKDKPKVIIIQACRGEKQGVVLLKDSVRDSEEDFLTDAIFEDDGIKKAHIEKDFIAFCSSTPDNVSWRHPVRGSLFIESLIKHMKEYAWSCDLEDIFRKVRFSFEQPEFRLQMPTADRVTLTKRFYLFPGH

Caspase-8 (Homo sapiens) = Caspase-8 (Homo sapiens) (UniProt Q14790); assay: (§1) Inhibition of recombinant MCH5 (unknown origin) assessed as ratio of irreversible rate constant K3 to dissociation constant of the reversible binding step Ki pre-incubated for 60 mins with Acetyl-Tyr-Val-Ala-Asp-amino-4-methylcoumarin substrate followed by enzyme addition by fluorescence based assay
Caspase-6 (Homo sapiens) = biological target: T2, Caspase-6 (Homo sapiens) (UniProt P55212); assay: Inhibition of recombinant MCH2 (unknown origin) assessed as ratio of irreversible rate constant K3 to dissociation constant of the reversible binding step Ki pre-incubated for 60 mins with Acetyl-Tyr-Val-Ala-Asp-amino-4-methylcoumarin substrate followed by enzyme addition by fluorescence based assay
T2 sequence (whole entry): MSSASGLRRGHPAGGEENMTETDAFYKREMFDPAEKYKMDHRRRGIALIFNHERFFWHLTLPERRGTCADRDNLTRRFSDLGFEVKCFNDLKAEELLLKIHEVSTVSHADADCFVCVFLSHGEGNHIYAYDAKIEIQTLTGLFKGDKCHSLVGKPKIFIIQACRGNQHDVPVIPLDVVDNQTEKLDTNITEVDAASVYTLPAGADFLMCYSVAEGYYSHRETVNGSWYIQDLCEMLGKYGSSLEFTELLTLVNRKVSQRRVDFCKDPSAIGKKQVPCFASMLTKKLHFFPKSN

Caspase-3 (Homo sapiens) = biological target: T3, Caspase-3 (Homo sapiens) (UniProt P42574); assay: as §1, with “CPP32” for “MCH5”
T3 sequence (whole entry): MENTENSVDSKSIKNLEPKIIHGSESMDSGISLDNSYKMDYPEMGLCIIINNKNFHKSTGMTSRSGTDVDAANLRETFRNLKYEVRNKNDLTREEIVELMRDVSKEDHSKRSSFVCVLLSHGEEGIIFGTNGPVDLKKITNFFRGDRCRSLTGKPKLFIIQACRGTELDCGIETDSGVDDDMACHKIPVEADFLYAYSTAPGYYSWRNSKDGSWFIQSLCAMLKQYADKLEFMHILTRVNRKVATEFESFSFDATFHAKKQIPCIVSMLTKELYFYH

Chain of Caspase-8 (Homo sapiens) (Q14790 217-374 limits assumed): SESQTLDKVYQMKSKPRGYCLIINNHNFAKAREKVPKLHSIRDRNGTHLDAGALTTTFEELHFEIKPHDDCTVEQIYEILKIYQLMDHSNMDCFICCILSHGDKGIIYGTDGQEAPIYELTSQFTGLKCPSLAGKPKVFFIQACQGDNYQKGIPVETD
Chain of Caspase-8 (Homo sapiens) (Q14790 385-479 limits assumed): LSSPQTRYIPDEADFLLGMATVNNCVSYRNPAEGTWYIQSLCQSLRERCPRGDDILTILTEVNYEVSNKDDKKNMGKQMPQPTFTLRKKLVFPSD

Row | SMILES | Ratio (Caspase-1 (Mus musculus)) | Ratio (Caspase-8 (Homo sapiens)) | Ratio (Caspase-6 (Homo sapiens)) | Ratio (Caspase-3 (Homo sapiens))
1 | C[C@H](NC(=O)C(=O)Nc1ccccc1I)C(=O)N[C@@H](CC(=O)O)C(=O)COC(=O)c1c(Cl)cccc1Cl | 90100 to 1.27e+06 M⁻¹ s⁻¹ | 337000 to 551000 M⁻¹ s⁻¹ | 28200 to 360000 M⁻¹ s⁻¹ | 67600 to 942000 M⁻¹ s⁻¹
2 | C[C@H](NC(=O)C(=O)Nc1ccccc1-c1ccccc1)C(=O)N[C@@H](CC(=O)O)C(=O)COP(=O)(c1ccccc1)c1ccccc1 | 345000 M⁻¹ s⁻¹ | 207000 M⁻¹ s⁻¹ | 317000 M⁻¹ s⁻¹ | 243000 M⁻¹ s⁻¹
3 | C[C@H](NC(=O)C(=O)Nc1ccccc1Cl)C(=O)N[C@@H](CC(=O)O)C(=O)COC(=O)c1c(Cl)cccc1Cl | 278000 to 1.94e+06 M⁻¹ s⁻¹ | 396000 to 1.63e+06 M⁻¹ s⁻¹ | 281000 to 745000 M⁻¹ s⁻¹ | 323000 to 842000 M⁻¹ s⁻¹
4 | C[C@H](NC(=O)C(=O)NCCc1ccccc1)C(=O)N[C@@H](CC(=O)O)C(=O)COP(=O)(c1ccccc1)c1ccccc1 | 1.23e+06 M⁻¹ s⁻¹ | 667000 M⁻¹ s⁻¹ | 131000 M⁻¹ s⁻¹ | 169000 M⁻¹ s⁻¹
5 | C[C@H](NC(=O)C(=O)NCc1cccc2ccccc12)C(=O)N[C@@H](CC(=O)O)C(=O)COc1c(F)c(F)cc(F)c1F | 2.59e+06 M⁻¹ s⁻¹ | 1.26e+06 M⁻¹ s⁻¹ | 335000 M⁻¹ s⁻¹ | 158000 M⁻¹ s⁻¹
6 | C[C@H](NC(=O)C(=O)Nc1ccccc1C(C)(C)C)C(=O)N[C@@H](CC(=O)O)C(=O)COc1ccccc1F | 442000 M⁻¹ s⁻¹ | 119000 M⁻¹ s⁻¹ | 54900 M⁻¹ s⁻¹ | 67700 M⁻¹ s⁻¹
7 | C[C@H](NC(=O)C(=O)Nc1cc(C(F)(F)F)ccc1N1CCOCC1)C(=O)N[C@@H](CC(=O)O)C(=O)COP(=O)(c1ccccc1)c1ccccc1 | 369000 M⁻¹ s⁻¹ | 441000 M⁻¹ s⁻¹ | 98500 M⁻¹ s⁻¹ | 100000 M⁻¹ s⁻¹
8 | C[C@H](NC(=O)C(=O)Nc1ccccc1Cc1ccccc1)C(=O)N[C@@H](CC(=O)O)C(=O)COc1c(F)c(F)cc(F)c1F | 323000 M⁻¹ s⁻¹ | 154000 M⁻¹ s⁻¹ | 5850 M⁻¹ s⁻¹ | 3430 M⁻¹ s⁻¹
9 | C[C@H](NC(=O)C(=O)Nc1cc(C(F)(F)F)ccc1N1CCCC1)C(=O)N[C@@H](CC(=O)O)C(=O)COP(=O)(c1ccccc1)c1ccccc1 | 1.5e+06 M⁻¹ s⁻¹ | 933000 M⁻¹ s⁻¹ | 202000 M⁻¹ s⁻¹ | 78600 M⁻¹ s⁻¹
10 | CC(C)[C@H](NC(=O)C(=O)Nc1cccc2ccccc12)C(=O)N[C@@H](CC(=O)O)C(=O)COc1cccc2ccccc12 | 254000 M⁻¹ s⁻¹ | 177000 M⁻¹ s⁻¹ | 83700 M⁻¹ s⁻¹ | 180000 M⁻¹ s⁻¹
11 | C[C@H](NC(=O)C(=O)NC12CC3CC(CC(C3)C1)C2)C(=O)N[C@@H](CC(=O)O)C(=O)COP(=O)(c1ccccc1)c1ccccc1 | 27600 to 242000 M⁻¹ s⁻¹ | 50400 to 643000 M⁻¹ s⁻¹ | 124000 to 445000 M⁻¹ s⁻¹ | 149000 to 243000 M⁻¹ s⁻¹

Other lines, results leading:

Row | Ratio (Caspase-1 (Mus musculus)) | Ratio (Caspase-8 (Homo sapiens)) | Ratio (Caspase-6 (Homo sapiens)) | Ratio (Caspase-3 (Homo sapiens)) | SMILES
12 | 767000 M⁻¹ s⁻¹ | 51300 M⁻¹ s⁻¹ | 8230 M⁻¹ s⁻¹ | 70600 M⁻¹ s⁻¹ | CC(C)[C@H](NC(=O)C(=O)Nc1cc(C(C)(C)C)ccc1C(C)(C)C)C(=O)N[C@@H](CC(=O)O)C(=O)COc1c(F)c(F)cc(F)c1F
13 | 344000 M⁻¹ s⁻¹ | 105000 M⁻¹ s⁻¹ | 25300 M⁻¹ s⁻¹ | 54800 M⁻¹ s⁻¹ | CC(C)[C@H](NC(=O)C(=O)Nc1ccccc1Cc1ccccc1)C(=O)N[C@@H](CC(=O)O)C(=O)COc1c(F)c(F)cc(F)c1F
14 | 2.05e+06 M⁻¹ s⁻¹ | 1.16e+06 M⁻¹ s⁻¹ | 112000 M⁻¹ s⁻¹ | 27700 M⁻¹ s⁻¹ | CC(C)[C@H](NC(=O)C(=O)Nc1ccccc1C(C)(C)C)C(=O)N[C@@H](CC(=O)O)C(=O)COc1c(F)c(F)cc(F)c1F
15 | 1.49e+06 M⁻¹ s⁻¹ | 598000 M⁻¹ s⁻¹ | 25500 M⁻¹ s⁻¹ | 36000 M⁻¹ s⁻¹ | CC(C)[C@H](NC(=O)C(=O)Nc1ccccc1)C(=O)N[C@@H](CC(=O)O)C(=O)COc1c(F)c(F)cc(F)c1F
16 | 36000 M⁻¹ s⁻¹ | 19500 M⁻¹ s⁻¹ | 11600 M⁻¹ s⁻¹ | 9850 M⁻¹ s⁻¹ | CC(C)[C@H](NC(=O)C(=O)Nc1ccccn1)C(=O)N[C@@H](CC(=O)O)C(=O)COc1c(F)c(F)cc(F)c1F
17 | 27400 M⁻¹ s⁻¹ | 20800 M⁻¹ s⁻¹ | 1840 M⁻¹ s⁻¹ | 3130 M⁻¹ s⁻¹ | CC(C)[C@H](NC(=O)C(=O)Nc1nc2ccccc2[nH]1)C(=O)N[C@@H](CC(=O)O)C(=O)COc1c(F)c(F)cc(F)c1F
18 | 906000 M⁻¹ s⁻¹ | 338000 M⁻¹ s⁻¹ | 121000 M⁻¹ s⁻¹ | 36300 M⁻¹ s⁻¹ | CC(C)[C@H](NC(=O)C(=O)Nc1ccc(F)cc1)C(=O)N[C@@H](CC(=O)O)C(=O)COc1c(F)c(F)cc(F)c1F
